In assay [1] the target is T1, Rho-associated protein kinase 2 (Bos taurus, UniProt Q28021). Kind of assay: Kinase Inhibition Assay. As to the method:
The kinase activity was determined by incubation of enzyme and its substrate, and test compound, in the presence ATP/[gamma-33P] ATP. After incubation, the reaction was stopped, and the 33P-phosphorylated substrate was determined by scintillation counting.

The target in assay [2] is cAMP-dependent protein kinase catalytic subunit alpha [V123M] (Bos taurus, UniProt P00517, V123M). The experiment in a line: Kinase Activity Assay. The following applies: pH 6.8; 25 °C. As to the method:
(§1) The enzyme activity was assayed by using an ATP regenerative NADH consuming system. The reaction was started with adding ATP to the mixture containing enzyme, substrate, and inhibitor. The decrease of NADH was time-dependent, and was measured at 340 nm with three independent measurements per data point. IC50 values were calculated using SigmaPlot 8.0 and Origin 5 software.

Assay [3] deals with cAMP-dependent protein kinase catalytic subunit alpha [Q181K,T183A] (Bos taurus, UniProt P00517, Q181K/T183A). Kind of assay: Kinase Activity Assay. As to the method:
as §1

For assay [4], the target named is cAMP-dependent protein kinase catalytic subunit alpha [L49I,V123M,Q181K,T183A] (Bos taurus, UniProt P00517, L49I/Q181K/T183A/V123M). Kind of assay: Kinase Activity Assay. As to the method: as §1
Assay [5] deals with cAMP-dependent protein kinase catalytic subunit alpha [L49I] (Bos taurus, UniProt P00517, L49I). Kind of assay: Kinase Activity Assay. As to conditions: pH 6.8; 25 °C. As to the method: as §1
Assay [6] concerns the target cAMP-dependent protein kinase catalytic subunit alpha [V123M,Q181K,T183A] (Bos taurus, UniProt P00517, Q181K/T183A/V123M). The experiment in a line: Kinase Activity Assay. As to the method: as §1
Assay [7] addresses cAMP-dependent protein kinase catalytic subunit alpha [E127D] (Bos taurus, UniProt P00517, E127D). The experiment in a line: Kinase Activity Assay. As to the method: as §1
The target in assay [8] is cAMP-dependent protein kinase catalytic subunit alpha [T183A] (Bos taurus, UniProt P00517, T183A). The experiment in a line: Kinase Activity Assay. As to the method:
as §1

Assay [9] concerns the target cAMP-dependent protein kinase catalytic subunit alpha [L49I,Q181K,T183A] (Bos taurus, UniProt P00517, L49I/Q181K/T183A). Kind of assay: Kinase Activity Assay. As to the method:
as §1

For assay [10], the target named is cAMP-dependent protein kinase catalytic subunit alpha [L49I,V123M,E127D,Q181K,T183A] (Bos taurus, UniProt P00517, E127D/L49I/Q181K/T183A/V123M). Kind of assay: Kinase Activity Assay. As to the method:
as §1

In assay [11] the target is T1, Rho-associated protein kinase 2. The experiment in a line: Kinase Activity Assay. As to the method: as §1
Assay [12] addresses cAMP-dependent protein kinase catalytic subunit alpha [V123M,T183A] (Bos taurus, UniProt P00517, T183A/V123M). Kind of assay: Kinase Activity Assay. As to the method:
as §1

Assay [13] deals with cAMP-dependent protein kinase catalytic subunit alpha (Bos taurus, UniProt P00517). The experiment in a line: Kinase Activity Assay. The following applies: pH 6.8; 25 °C. As to the method:
as §1

Assay [14] has as its target cAMP-dependent protein kinase catalytic subunit alpha [L49I,T183A] (Bos taurus, UniProt P00517, L49I/T183A). Kind of assay: Kinase Activity Assay. As to the method: as §1

Each structure is given as a SMILES string.

T1 sequence (Q28021 whole entry): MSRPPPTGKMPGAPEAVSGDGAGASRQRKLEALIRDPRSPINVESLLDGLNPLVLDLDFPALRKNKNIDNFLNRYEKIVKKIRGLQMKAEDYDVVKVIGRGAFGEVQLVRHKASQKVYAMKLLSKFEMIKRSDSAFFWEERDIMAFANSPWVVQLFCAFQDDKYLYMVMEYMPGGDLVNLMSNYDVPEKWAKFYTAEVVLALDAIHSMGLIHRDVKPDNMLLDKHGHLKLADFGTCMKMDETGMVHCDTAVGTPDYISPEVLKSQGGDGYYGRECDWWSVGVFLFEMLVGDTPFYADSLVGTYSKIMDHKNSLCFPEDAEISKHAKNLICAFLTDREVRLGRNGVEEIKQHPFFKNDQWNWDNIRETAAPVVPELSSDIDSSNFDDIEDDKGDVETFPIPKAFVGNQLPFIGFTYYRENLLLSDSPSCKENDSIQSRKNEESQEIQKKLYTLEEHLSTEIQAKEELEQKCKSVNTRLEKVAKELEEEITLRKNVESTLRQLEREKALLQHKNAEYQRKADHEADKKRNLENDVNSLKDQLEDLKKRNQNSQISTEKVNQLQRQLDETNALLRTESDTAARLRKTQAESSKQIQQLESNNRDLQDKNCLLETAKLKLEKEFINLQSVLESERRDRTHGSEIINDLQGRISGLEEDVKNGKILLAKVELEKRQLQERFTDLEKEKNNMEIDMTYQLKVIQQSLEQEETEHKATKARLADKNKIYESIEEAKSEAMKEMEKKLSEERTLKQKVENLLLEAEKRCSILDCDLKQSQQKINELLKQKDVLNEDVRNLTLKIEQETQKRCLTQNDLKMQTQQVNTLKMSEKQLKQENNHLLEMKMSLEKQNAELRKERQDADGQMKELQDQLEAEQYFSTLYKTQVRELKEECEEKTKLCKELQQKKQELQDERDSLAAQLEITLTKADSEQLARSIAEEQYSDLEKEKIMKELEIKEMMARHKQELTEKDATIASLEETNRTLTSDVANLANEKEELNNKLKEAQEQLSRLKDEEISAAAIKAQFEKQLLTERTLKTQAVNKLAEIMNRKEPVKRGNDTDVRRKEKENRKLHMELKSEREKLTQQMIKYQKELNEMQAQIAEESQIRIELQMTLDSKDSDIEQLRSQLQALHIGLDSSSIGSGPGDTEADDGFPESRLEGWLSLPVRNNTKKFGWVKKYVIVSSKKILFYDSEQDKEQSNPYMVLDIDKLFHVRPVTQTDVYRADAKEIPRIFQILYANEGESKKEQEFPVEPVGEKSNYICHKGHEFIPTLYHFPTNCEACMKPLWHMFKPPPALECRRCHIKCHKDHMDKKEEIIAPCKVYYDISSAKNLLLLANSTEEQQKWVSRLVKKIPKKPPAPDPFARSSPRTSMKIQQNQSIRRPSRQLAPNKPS

`CN[C@@H]1C[C@H]2O[C@@](C)([C@@H]1OC)n1c3ccccc3c3c4c(c5c6ccccc6n2c5c31)C(=O)NC4` yielded an IC50 in [1] of 1.2 nM.
Regarding `C[C@@H](N)[C@H]1CC[C@H](C(=O)Nc2ccncc2)CC1` [4-[(1R)-1-aminoethyl]-N-(pyridin-4-yl)cyclohexane-1-carboxamide], the concentration for half-maximal inhibition (IC50) came out at 60000 nM in assay [2]; 9000 nM in assay [3]; 18000 nM in [4]; 28000 nM in assay [5]; 25000 nM in assay [6]; 16000 nM in [7]. The IC50 in [8] turned out to be 9000 nM; in assay [9] it was 6000 nM; in [10], 6000 nM; in assay [11], 500 nM; in assay [12] it was 31000 nM; in [13], 42000 nM. The midpoint of inhibition in assay [14], the IC50, lay at 12000 nM.
The compound `O=S(=O)(c1cccc2cnccc12)N1CCCNCC1` [AT877] returned an IC50 in assay [11] of 485 nM.
Regarding `Cc1cncc2cccc(S(=O)(=O)N3CCCNC[C@@H]3C)c12` [H-1152], the half-inhibitory concentration (IC50) came to 1520 nM in assay [2]; 109 nM in assay [3]; 89 nM in assay [4]; 426 nM in [5]; 223 nM in [6]; 493 nM in [7]. The IC50 in [8] was 109 nM; in assay [11], less than 45 nM; in assay [12], 293 nM; in [13], 394 nM.
For the compound `CCCCCCOC(=O)[C@]1(O)C[C@@H]2O[C@@]1(C)n1c3ccccc3c3c4c(c5c6ccccc6n2c5c31)C(=O)NC4` [hexyl (15R,16S,18S)-16-hydroxy-15-methyl-3-oxo-28-oxa-4,14,19-triazaoctacyclo[12.11.2.1^{15,18}.0^{2,6}.0^{7,27}.0^{8,13}.0^{19,26}.0^{20,25}]octacosa-1(26),2(6),7(27),8(13),9,11,20(25),21,23-nonaene-16-carboxylate], the IC50 was 222 nM in assay [2]; less than 45 nM in [3]; 2010 nM in assay [4]; 10300 nM in assay [5]; 68 nM in assay [6]; 1820 nM in assay [7]. Further, the IC50 is less than 45 nM in assay [8]; 5540 nM in assay [9]; 1300 nM in assay [10]; 1800 nM in assay [11]; 56 nM in assay [13].

As usually defined, the IC50 is the point on the concentration scale where inhibition reaches its midpoint. The low end stands for higher potency, the high end for lower potency.

These data come from BindingDB's records for doi:10.1074/jbc.M512374200 (German Cancer Research Center, 2006).
